Here are results for 1 compound from US20220117938A1, “COMBINATON THERAPY WITH A DON PRODRUG AND AN IMMUNE CHECKPOINT INHIBITOR” (DRACEN PHARMACEUTICALS, INC., priority 2019, published 2022).

SMILES strings stand for the structures.

Assay [1] deals with MC-38 tumors. The assay can be described thus: Anti-tumor efficacy of Compound 1 with and without anti-PD-1 in the subcutaneous MC-38 model (Example 4). It counts as in vivo, Mus musculus. The following applies: for MST: endpoint tumor volume 2000 mm^3; for T/C / TGI: Day 12. The method, then: Tumor sizes were measured three times a week in two dimensions using a caliper, and the volume expressed in mm^3 using the formula: V=0.5 a×b^2 where a and b are the long and short diameters of the tumor, respectively. The tumor sizes were then used for the calculations of both tumor growth inhibition (TGI) and T/C values.
TGI is calculated for each group using the formula: […]
TVTreatment_DayN is the average tumor volume of a treatment group on a given day, TVTreatment_Day0 is the average tumor volume of the treatment group on the first day of treatment, TVVehicle_DayN is the average tumor volume of the vehicle control group on a given day, and TVVehicle_Day0 is the average tumor volume of the vehicle group on the first day of treatment.
The T/C value (in percent) is an indication of antitumor effectiveness, T/C (%)=RTVTreatment/RTVControl×100% (RTVTreatment: the mean RTV of the treatment group; RTVControl: the mean RTV of the vehicle treated group). RTV (relative tumor volume)=TVDayN/TVDay0. TVDayN and TVDay0 is the tumor volume on day N and Day 0 respectively. T/C (%)≤42% is considered as significant antitumor activity and <10% is considered as highly significant antitumor activity by the National Cancer Institute criteria.
Animal survival curve: When an individual animal reached to the termination endpoint (TV>2000 mm^3), the mouse was euthanized. The time from treatment initiation to the termination was deemed as its survival time. Survival curve was plotted by Kaplan-Meier method. Median survival time (MST) was calculated for each group. Increase of life span (ILS) was calculated according to the following formula: […]
ILS (%)>25% is considered as a biologically significant survival benefit.
The tumor volume between different groups was analyzed by two-way repeated measures ANOVA. Dunnett post hoc test was used for the comparisons with vehicle group. All data analyzed using GraphPad Prism 6.0. P<0.05 is considered to be statistically significant.
Female C57BL/6 mice were inoculated subcutaneously at right flank with MC-38 cells for tumor development. Six days after tumor inoculation, 64 mice with tumor size ranging from 50-100 mm^3 (average tumor size 71 mm^3) were selected and assigned into 8 groups using stratified randomization with 8 mice per group based upon their tumor volumes. The treatments were started from the day of randomization (defined as D0), Group 1 was treated with Vehicle (Tween 80:Ethanol:Saline—5:5:90 v/v/v), s.c., qd×14, Group 2 was treated with Anti-PD-1 10 mg/kg i.p. q4d×4, Group 3 was treated with Compound 1 3 mpk qd×5, sc followed by 1 mpk, qd×9, sc, Group 4 was treated with Compound 1 3 mpk qd×5, sc followed by 1 mpk, qd×9, sc+anti PD-1 q4d×4, ip, Group 5 was treated with Compound 1 1 mpk qd×5, sc followed by 0.3 mpk, qd×9, sc, Group 6 was treated with Compound 1 1 mpk qd×5, sc followed by 0.3 mpk, qd×9, sc+anti PD-1 q4d×4, ip, Group 7 was treated with Compound 1 0.3 mpk qd×5, sc followed by 0.1 mpk, qd×9, sc and Group 8 was treated with Compound 1 0.3 mpk qd×5, sc followed by 0.1 mpk, qd×9, sc+anti PD-1 q4d×4, ip. The tumor sizes were measured three times per week during the treatment. The entire study was terminated on D56 after start of the treatment. […]
The MC-38 tumor cells were maintained in vitro as a monolayer culture in DMEM medium supplemented with 10% heat inactivated fetal bovine serum and 100 μg/mL penicillin streptomycin at 37° C. in an atmosphere of 5% CO2 in air. The tumor cells were routinely subcultured twice weekly by trypsin-EDTA treatment. The cells growing to a confluency around 70%-80% were harvested and counted for tumor inoculation. The cultured MC-38 were harvested, re-suspended in base medium at a density of 1×10^7 cells/mL with viability >90%. Each mouse was inoculated subcutaneously at the right flank with 1×10^6 cells in 0.1 ml base medium for tumor development. […]

In assay [2] the test system is MC-38 tumors. Description: MC-38 re-implantation study in tumor free mice (Example 3). It counts as in vivo, Mus musculus. Particulars: for Tumor volume (Mean ± SEM): four tumor free mice of Group 5 (0.7 mpk 5-days ON 2-days OFF x 4 cycles). How it is done: Four mice in Group 5 were tumor free on D67 and 1×10^6 MC-38 cells suspended in 100 μL base DMEM were inoculated subcutaneously into the left flank. 5 naïve mice were inoculated with the same inoculation condition as control. The tumor sizes were measured three times per week during the treatment. The study was terminated on D102.
Four mice in Group 5 were tumor free on D67 and 1×10^6 MC-38 cells suspended in 100 μL base DMEM were inoculated subcutaneously into the left flank. 5 naïve mice were inoculated with the same inoculation condition as control.

[3] abbreviates: 4 cured mice of Group 5 (0.7 mpk) re-implanted with MC-38 cells.

Take `CC(=O)N[C@@H](Cc1c[nH]c2ccccc12)C(=O)N[C@@H](CCC(=O)C=[N+]=[N-])C(=O)OC(C)C` [Compound 1, Isopropyl (S)-2-((S)-2-acetamido-3-(1H-indol-3-yl)propanamido)-6-diazo-5-oxohexanoate]: the ILS (in general, the gain in survival time of treated over control animals, in per cent) in assay [1] (Cpd. 1 0.3 mpk/0.1 mpk) worked out at 114.29%; in assay [1] (Cpd. 1 1 mpk/0.3 mpk) it was 135.71%; in assay [1] (Cpd. 1 3 mpk/1 mpk) it was 135.71%. The “RTV at day 12” value in assay [1] (Cpd. 1 0.3 mpk/0.1 mpk) came out at 1.67 ± 0.03; in assay [1] (Cpd. 1 1 mpk/0.3 mpk) it was 0.36 ± 0.09; in assay [1] (Cpd. 1 3 mpk/1 mpk), 0.11 ± 0.03. The MST in assay [1] (Cpd. 1 0.3 mpk/0.1 mpk) came to 30 days; in assay [1] (Cpd. 1 1 mpk/0.3 mpk), 33 days; in assay [1] (Cpd. 1 3 mpk/1 mpk) it was 33 days. In addition, the T/C (as a rule, the result in the treated group divided by that in the control group, in per cent) in assay [1] (Cpd. 1 0.3 mpk/0.1 mpk) came to 7.02%; in assay [1] (Cpd. 1 1 mpk/0.3 mpk) it was 1.51%; in assay [1] (Cpd. 1 3 mpk/1 mpk) it was 0.46%. Moreover, the TGI in assay [1] (Cpd. 1 0.3 mpk/0.1 mpk) was determined as 97.27%; in assay [1] (Cpd. 1 1 mpk/0.3 mpk), 102.87%; in assay [1] (Cpd. 1 3 mpk/1 mpk), 103.98%. Further, the “Re-implanted cured mice still tumor free on Day 35 after re-implantation” value in assay [2] (setting [3]) is “one”. Also, the “Re-implanted cured mice that regrew the tumor” value in assay [2] (setting [3]) was “three”. Further, the “Tumor volume (Mean ± SEM)” value in assay [2] (Day 7 after re-implantation) amounted to 32 ± 14 mm^3; in assay [2] (Day 9 after re-implantation) it was 106 ± 44 mm^3; in assay [2] (Day 11 after re-implantation), 152 ± 55 mm^3; in assay [2] (Day 14 after re-implantation), 373 ± 174 mm^3; in assay [2] (Day 16 after re-implantation) it was 568 ± 258 mm^3; in assay [2] (Day 18 after re-implantation) it was 886 ± 429 mm^3. For the same compound, the “Tumor volume (Mean ± SEM)” value in assay [2] (Day 21 after re-implantation) was 1911 ± 794 mm^3.
